{
  "source": "patent US10000500B2",
  "about": "(PROMEGA CORPORATION, priority 2016, dated 2018)",
  "target": "NANOLUC® Luciferase (Oplophorus gracilirostris, UniProt Q9GV45, A31E/A60N/A81I/F95D/I117V/K70R/L54V/L99Q/M102K/N193R/P142E/Q151K/Q38R/Q45L/V71I/Y165I)",
  "sequence (Q9GV45 28-196 with tags or gaps with the stated changes limits assumed)": "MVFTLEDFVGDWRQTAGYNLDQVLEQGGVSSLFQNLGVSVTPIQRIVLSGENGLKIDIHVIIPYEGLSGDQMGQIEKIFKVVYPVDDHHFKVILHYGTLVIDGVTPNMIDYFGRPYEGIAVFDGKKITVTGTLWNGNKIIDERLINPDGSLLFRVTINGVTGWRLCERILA",
  "test": "Km and Vmax substrate titration with NanoLuc luciferase (Example 8)",
  "format": "biochemical",
  "conditions": "NanoLuc 4 ng/ml; Renilla Glo buffer; Michaelis-Menten fit",
  "procedure": "Each compound to be screened was diluted to a concentration of 100 uM in Renilla Glo Luciferase Assay buffer (Promega Corporation) and then further diluted to 2×serial dilution in Renilla Glo Luciferase Assay Buffer. NANOLUC® luciferase and Renilla luciferase were diluted to a concentration of 4 ng/ml in OptiMEM+0.1% FBS. 50 ul of each compound dilution was then mixed with 50 ul of each enzyme dilution and incubated for 1 minute at room temperature. Light output for each compound was measured on a GLOMAX®-Multi+ luminometer. Km and Vmax were calculated for each enzyme/substrate combination using a GraphPad Prism Michaelis-Menten non-linear fit (FIGS. 1A-ID).",
  "data": [
    {"compound": "O=c1c(Cc2ccco2)nc2c(Cc3ccccc3)[nH]c(-c3ccccc3)cn1-2", "note": "[Furimazine, 8-benzyl-2-(furan-2-ylmethyl)-6-phenylimidazo[1,2-a]pyrazin-3(7H)-one]", "values": [
      {"measurement": "Km", "value": 9.37, "unit": "µM"}
    ]}
  ]
}
